Test results reported in patent US10570117B2, “Phenylimidazole compound” (Otsuka Pharmaceutical Factory, Inc., priority 2015, dated 2020).
Converted amounts (≈) assume the structure as drawn. Where two headings read alike, the source gives them in different places.

Columns and labels:
[1] = Solubility in gastric juice or intestinal juice model fluid (precipitation method using DMSO); format: physicochemical; details: room temperature
Procedure: Solubility in Gastric Juice or Intestinal Juice Model Fluid
Measurement was performed by a precipitation method using DMSO. Specifically, each of the dimethyl sulfoxide (DMSO) solutions of the compounds was individually added to 1st fluid for Disintegration Test of Japanese Pharmacopoeia (pH: 1.2) or 2nd fluid for Disintegration Test of Japanese Pharmacopoeia (pH: 6.8), and the mixtures were stirred by shaking at room temperature for 24 hours. Subsequently, insoluble substances in each mixture were removed by filtration, and the UV absorption of each filtrate was measured. The obtained values were individually applied to the calibration curves of the compounds prepared in advance to calculate the concentrations of the compounds dissolved (μg/mL).

[2] = pH 1.2, simulated gastric fluid, kinetic from dmso stock, 1st fluid for Disintegration Test of Japanese Pharmacopoeia (pH: 1.2), read-out: Solubility (μg/mL) 1st fluid
[3] = pH 6.8, kinetic from dmso stock, 2nd fluid for Disintegration Test of Japanese Pharmacopoeia (pH: 6.8), read-out: Solubility (μg/mL) 2nd fluid

| Structure (SMILES) | melting point | solubility at 24 h [1, 2] | solubility at 24 h [1, 3] |
| --- | --- | --- | --- |
| COc1cc(OCc2ncccc2C#N)ccc1-c1cnc(C2CCC(F)(F)CC2)[nH]1 [Example 7] | 69 to 89 °C | 84 µg/mL (≈ 198 µM) | 40.2 µg/mL (≈ 94.7 µM) |
| COc1cc(OCc2cccc(C#N)n2)ccc1-c1cnc(C2CCC(F)(F)CC2)[nH]1 [Example 8] | 195 to 197 °C | 83.6 µg/mL (≈ 197 µM) | < 0.3 µg/mL |
| COc1cc(-c2nc(-c3ccc(Cl)nc3)[nH]c2C)ccc1OCc1ccc(C(F)(F)F)cn1 [Example 30] | 228 to 230 °C (dec.) | 24 µg/mL (≈ 50.5 µM) | 0.6 µg/mL (≈ 1.26 µM) |
| COc1cc(-c2nc(-c3ccc(Cl)cn3)[nH]c2C)ccc1OCc1ccc(C(F)(F)F)cn1 [Example 31] | 168 to 171 °C | 7.7 µg/mL (≈ 16.2 µM) | 1.6 µg/mL (≈ 3.37 µM) |
| COc1cc(OCc2cc(C(F)(F)F)ccn2)ccc1-c1c[nH]c(-c2ccc(Cl)nc2)n1 [Example 37] | 216 to 217 °C | 5.6 µg/mL (≈ 12.2 µM) | 0.6 µg/mL (≈ 1.3 µM) |
| COc1cc(OCc2ccc(C(F)(F)F)nc2)ccc1-c1c[nH]c(C2CCCCC2)n1 [Example 53] | 62 to 73 °C | > 86 µg/mL | 4.6 µg/mL (≈ 10.7 µM) |
| COc1cc(OCc2ccc(C(F)(F)F)cn2)ccc1-c1c[nH]c(-c2ccc(N3CCCC3)nc2)n1 [Example 58] | 227 to 231 °C (dec.) | 94.4 µg/mL (≈ 191 µM) | 16.5 µg/mL (≈ 33.3 µM) |
| COc1cc(OCc2cccc(C#N)n2)ccc1-c1c[nH]c(-c2ccc(Cl)nc2)n1 [Example 60] | 235 to 239 °C (dec.) | 8.8 µg/mL (≈ 21.1 µM) | 1.1 µg/mL (≈ 2.63 µM) |
| COc1cc(OCc2ccc(C(F)(F)F)cn2)ccc1-c1c[nH]c(C2CCC(F)(F)CC2)n1 [Example 61] | 232 to 237 °C | > 101 µg/mL | 1.6 µg/mL (≈ 3.42 µM) |
| COc1cc(-c2c[nH]c(C3CCC(F)(F)CC3)n2)ccc1OCc1ccc(C(F)(F)F)cn1 [Example 62] | > 250 °C | > 101 µg/mL | 1.3 µg/mL (≈ 2.78 µM) |
| COc1cc(-c2c[nH]c(C3CCC(F)(F)CC3)n2)cc(OC)c1OCc1ccc(C(F)(F)F)cn1 [Example 63] | 155 to 168 °C (dec.) | 82.2 µg/mL (≈ 165 µM) | 12.5 µg/mL (≈ 25.1 µM) |
| COc1cc(-c2c[nH]c(C3CCC(C)CC3)n2)ccc1OCc1ccc(C(F)(F)F)cn1 (stereo not shown) [Example 64] | 147 to 150 °C | 56.2 µg/mL (≈ 126 µM) | 2.6 µg/mL (≈ 5.84 µM) |
| COc1cc(-c2c[nH]c(C34CC5CC(CC(C5)C3)C4)n2)cc(OC)c1OCc1ccc(C(F)(F)F)cn1 [Example 66] | 144 to 168 °C | 56.9 µg/mL (≈ 111 µM) | 0.9 µg/mL (≈ 1.75 µM) |
| COc1cc(-c2c[nH]c(C34CC5CC(CC(C5)C3)C4)n2)ccc1OCc1ccc(C(F)(F)F)cn1 [Example 67] | 209 to 217 °C | 93.5 µg/mL (≈ 193 µM) | 0.4 µg/mL (≈ 0.827 µM) |
| COc1cc(-c2c[nH]c(C3CCC(C(C)(C)C)CC3)n2)ccc1OCc1ccc(C(F)(F)F)cn1 (stereo not shown) [Example 69] | 159 to 161 °C | 5.3 µg/mL (≈ 10.9 µM) | 1.3 µg/mL (≈ 2.67 µM) |
| COc1cc(-c2c[nH]c(C3CCCCCC3)n2)cc(OC)c1OCc1ccc(C(F)(F)F)cn1 [Example 74] | 177 to 179 °C | 53.6 µg/mL (≈ 113 µM) | 1.8 µg/mL (≈ 3.79 µM) |

| Structure (SMILES) | melting point | solubility at 24 h [1, 2] | solubility at 24 h [1, 3] |
| --- | --- | --- | --- |
| COc1cc(OCc2ccc(C(F)(F)F)cn2)ccc1-c1c[nH]c(C2CCCCCC2)n1 [Example 75] | 202 to 204 °C (dec.) | 83.1 µg/mL (≈ 187 µM) | 1 µg/mL (≈ 2.24 µM) |
| COc1cc(-c2c[nH]c(C3CCCCC3)n2)cc(OC)c1OCc1ccc(C(F)(F)F)cn1 [Example 76] | 183 to 186 °C | < 8.5 µg/mL | 1 µg/mL (≈ 2.17 µM) |
| COc1cc(-c2c[nH]c(C3CCCC3)n2)ccc1OCc1ccc(C(F)(F)F)cn1 [Example 78] | 207 to 210 °C | > 83 µg/mL | 20.6 µg/mL (≈ 49.3 µM) |
| COc1cc(-c2c[nH]c(C3CCCCC3)n2)ccc1OCc1ccc(C(F)(F)F)cn1 [Example 81] | 135 to 145 °C | 78.7 µg/mL (≈ 182 µM) | 5.8 µg/mL (≈ 13.4 µM) |
| COc1cc(-c2c[nH]c(C3CC3)n2)ccc1OCc1ccc(C(F)(F)F)cn1 [Example 82] | 153 to 155 °C | > 78 µg/mL | 41.1 µg/mL (≈ 106 µM) |
| COc1cc(OCc2ccc(Br)cc2F)ccc1-c1c[nH]c(C2CC2)n1 [Example 83] | 157 to 160 °C | 27.8 µg/mL (≈ 66.6 µM) | 2.9 µg/mL (≈ 6.95 µM) |
| COc1cc(-c2c[nH]c(-c3ccc(C)nc3)n2)ccc1OCc1ccc(C(F)(F)F)cn1 [Example 85] | 201 to 203 °C (dec.) | 85.4 µg/mL (≈ 194 µM) | 1 µg/mL (≈ 2.27 µM) |
| COc1cc(OCc2ccc(Br)cc2F)ccc1-c1c[nH]c(-c2ccc(C)nc2)n1 [Example 86] | 218 to 220 °C (dec.) | 73.5 µg/mL (≈ 157 µM) | < 0.3 µg/mL |
| COc1cc(-c2c[nH]c(-c3ccccn3)n2)ccc1OCc1ccc(C(F)(F)F)cn1 [Example 87] | 217 to 220 °C | 39.4 µg/mL (≈ 92.4 µM) | 0.7 µg/mL (≈ 1.64 µM) |
| COc1cc(OCc2ccc(C(F)(F)F)cn2)ccc1-c1c[nH]c(-c2ccccn2)n1 [Example 88] | 214 to 216 °C | 54.1 µg/mL (≈ 127 µM) | 0.5 µg/mL (≈ 1.17 µM) |
| COc1cc(OCc2ccc(Br)cc2F)ccc1-c1c[nH]c(-c2ccccn2)n1 [Example 91] | 143 to 146 °C | 42.8 µg/mL (≈ 94.2 µM) | 0.6 µg/mL (≈ 1.32 µM) |
| COc1cc(-c2c[nH]c(-c3ccc(Cl)nc3)n2)ccc1OCc1ccc(C(F)(F)F)cn1 [Example 93] | > 280 °C | 10 µg/mL (≈ 21.7 µM) | 0.9 µg/mL (≈ 1.95 µM) |
| COc1cc(-c2c[nH]c(-c3ccc(C(F)(F)F)nc3)n2)ccc1OCc1ccc(C(F)(F)F)cn1 [Example 97] | 201 to 203 °C | 15.2 µg/mL (≈ 30.7 µM) | 2.2 µg/mL (≈ 4.45 µM) |
| COc1cc(OCc2ccc(Br)cc2F)ccc1-c1c[nH]c(-c2ccncc2)n1 [Example 98] | 226 to 230 °C | 37.1 µg/mL (≈ 81.7 µM) | 1.3 µg/mL (≈ 2.86 µM) |
| COc1cc(OCc2ncc(Br)cc2F)ccc1-c1cnc(-c2ccc(Cl)nc2)[nH]1 [Example 105] | 219 to 225 °C | 27.6 µg/mL (≈ 56.4 µM) | < 0.3 µg/mL |
| COc1cc(-c2c[nH]c(-c3ccc(F)nc3)n2)ccc1OCc1ncccc1F [Example 119] | 68 to 79 °C | 44.7 µg/mL (≈ 113 µM) | 5.2 µg/mL (≈ 13.2 µM) |

Continued, values first:

| melting point | solubility at 24 h [1, 2] | solubility at 24 h [1, 3] | Structure (SMILES) |
| --- | --- | --- | --- |
| 167 to 169 °C | 86.6 µg/mL (≈ 197 µM) | 0.9 µg/mL (≈ 2.05 µM) | COc1cc(OCc2ccc(C(F)(F)F)nc2)ccc1-c1cnc(C2CC(F)(F)C2)[nH]1 [Example 4] |
| 176 to 178 °C | 8.7 µg/mL (≈ 19.6 µM) | 1.3 µg/mL (≈ 2.93 µM) | COc1cc(OCc2ccc(C(F)(F)F)nc2)ccc1-c1c[nH]c(-c2ccc(F)cn2)n1 [Example 26] |
| 267 to 269 °C | 3 µg/mL (≈ 6.32 µM) | 0.6 µg/mL (≈ 1.26 µM) | COc1cc(-c2nc(-c3ccc(Cl)cn3)[nH]c2C)ccc1OCc1ccc(C(F)(F)F)nc1 [Example 29] |
| 152 to 154 °C | 23.3 µg/mL (≈ 52.4 µM) | 1.3 µg/mL (≈ 2.93 µM) | COc1cc(OCc2ccc(C(F)(F)F)cn2)ccc1-c1c[nH]c(-c2ccc(F)cn2)n1 [Example 41] |
| 215 to 217 °C | 8.7 µg/mL (≈ 18.9 µM) | 0.9 µg/mL (≈ 1.95 µM) | COc1cc(OCc2ccc(C(F)(F)F)cn2)ccc1-c1c[nH]c(-c2ccc(Cl)nc2)n1 [Example 94] |
| 164 to 186 °C | 92.5 µg/mL (≈ 193 µM) | 8.9 µg/mL (≈ 18.6 µM) | COc1cc(OCc2ncc(C(F)(F)F)cc2F)ccc1-c1cnc(-c2ccc(Cl)nc2)[nH]1 [Example 102] |
| 183 to 186 °C | 11.3 µg/mL (≈ 25.4 µM) | 2.7 µg/mL (≈ 6.08 µM) | COc1cc(OCc2cc(C(F)(F)F)ccn2)ccc1-c1cnc(-c2ccc(F)nc2)[nH]1 [Example 114] |
| 125 to 135 °C | 15.5 µg/mL (≈ 35 µM) | 2 µg/mL (≈ 4.51 µM) | COc1cc(OCc2ccc(C(F)(F)F)cc2)ccc1-c1cnc(-c2ccc(F)nc2)[nH]1 [Example 115] |
| 144 to 146 °C | 24.1 µg/mL (≈ 54.2 µM) | < 1.6 µg/mL | COc1cc(-c2cnc(-c3ccc(F)nc3)[nH]2)ccc1OCc1ccc(C(F)(F)F)nc1 [Example 116] |
| 236 to 238 °C |  |  | COc1cc(OCc2ccnc(C(F)(F)F)c2)ccc1-c1[nH]c(-c2ccc(F)nc2)nc1Cl [Example 272] |
| 190 to 193 °C |  |  | COc1cc(OCc2cccc(C(F)(F)F)n2)ccc1-c1[nH]c(-c2ccc(Cl)nc2)nc1Cl [Example 282] |
| 172 to 175 °C |  |  | COc1cc(OCc2ncc(Cl)cc2F)ccc1-c1[nH]c(-c2ccc(F)nc2)nc1Cl [Example 283] |
| 183 to 185 °C |  |  | COc1cc(OCc2ccc(Br)cc2F)ccc1-c1[nH]c(-c2ccc(F)nc2)nc1Cl [Example 284] |
| 163 to 166 °C |  |  | COc1cc(OCc2ccc(Cl)cc2F)ccc1-c1[nH]c(-c2ccc(F)nc2)nc1Cl [Example 286] |
| 149 to 151 °C |  |  | COc1cc(OCc2ccc(C(F)(F)F)nc2)ccc1-c1c(Cl)nc(-c2ccc(Cl)nc2)n1C [Example 307] |
| 194 to 196 °C |  |  | COc1cc(OCc2ccc(C(F)(F)F)nc2)ccc1-c1[nH]c(-c2ccc(F)nc2)nc1F [Example 320] |
